Measured values: US20230106583A1, “HETEROARYL COMPOUNDS” (Vivace Therapeutics, Inc., priority 2019, published 2023)

Each compound was assayed on HEK293T cells stably transfected with 8XTBD luciferase reporter and pRLTK (assay: YAP Reporter Assay (8XTBD-driven firefly luciferase)). Settings: Homo sapiens, HEK-293T; HEK293T 8XTBD luciferase reporter; 24-hr incubation with compounds; top concentration 3 μM, 10 points.
Assay type: cell-based
Experimental: HEK293T cells stably transfected with 8XTBD luciferase reporter and pRLTK in 384-well plates were treated with the test compounds, starting from 3 μM (final concentration in assay plate), 1:3 dilution, and 10 points in quadruplicates. Post 24-hr incubation with compounds at 37° C. and 5% CO2, cells were lysed and 8XTBD-driven firefly luciferase and control TK-driven renilla luciferase activities were measured using Promega Dual-Luciferase Reporter Assay System.
Reagents: The reagents used for this study are: DMEM: Invitrogen #11960077, Dual-Glo Luciferase Assay System: Promega-E2980, Puromycin Dihydrochloride: Invitrogen-A1113803, 384-well plate: PerkinElmer-6007480, L-GLUTAMINE: Invitrogen-25030164, Hygromycin B: Invitrogen-10687010, and Penicillin-Streptomycin: Merk-TMS-AB2-C
Media: The media used for this assay were: Culture Medium: DMEM+1 ug/mL puromycin+200 ug/mL hygromycin (with 10% FBS+1 mM L-glutamine); and Assay Medium: DMEM (with 10% FBS+1 mM L-glutamine+1×P/S).
Cell Plating: The appropriate media was warmed at 37° C. by water bath: Culture Medium, Assay Medium, 1*D-PBS, 0.05% trypsin-EDTA. The cells were trypsinized after removing all media, then washed with 1*sterile D-PBS and then with 2 ml 0.05% trypsin-EDTA. The cells were then incubated at RT for one minute. Then 10 ml/75 cm2 flask Assay Medium was added to each flask. Using a 10 ml pipette, the cells were then gently resuspended in the media, until the clumps completely disappeared. The cells were then transferred into 50 ml centrifuge tubes and were centrifuged at 800 rpm for 5 mins. The medium was removed and the cells were resuspended with Assay Medium. An aliquot of cells was used to count the cell density (cells/ml). The cell suspension was then diluted with Assay Medium to a concentration of 6×10^4 cells/ml. 50 ul cells suspension was then plated to 384-well plate (PerkinElmer-6007480), 3×10^3 cells/well and the cells were incubated in an incubator at 37° C., 5% CO2.
Compound Treatment: In the afternoon (incubation of the plate with 3-4 hrs), the test compounds were added by Echo, starting from 3 uM (final concentration in the assay plate), 1:3 dilution, 10 points, quadruplicates. The plate was placed at 37° C., 5% CO2 incubator for 24 hrs.
Detection: The Dual-Glo Luciferase Reagent was prepared by transferring the contents of one bottle of Dual-Glo Luciferase Buffer to one bottle of Dual-Glo Luciferase Substrate to create the Dual-Glo Luciferase Reagent. Mixing was performed by inversion until the substrate was thoroughly dissolved. After mixing, the reagent was aliquoted into 15 ml tubes. In the afternoon (24 hrs post compound treatment), the DMEM+medium in the 384 well plates were aspirated by Microplate Washer.
Measuring firefly luciferase activity: 20 ul Dual-Glo Luciferase Reagent was added to the 384-well plates. The plates were protected from light to prevent interference with the assay. The plates were shaken for 1 min followed centrifuging plates at 1000 rpm for 30 seconds. After waiting at least 10 minutes, the firefly luminescence was measured by Envision.
Measuring renilla luciferase activity: 20 ul Stop-Glo Reagent was added to the 384-well plates. The plates were shaken for 1 min and then centrifuged at 1000 rpm for 30 seconds. After waiting at least 10 minutes, the renilla luminescence was measured by Envision.
Compound IC50 and maximum inhibition on the firefly luciferase and renilla luciferase activities were reported separately.

| Compound | IC50 [µM] |
| --- | --- |
| CC1(c2nnc(-c3cccnc3Nc3ccc(C(F)(F)F)cc3)o2)OCCNC1=O (stereo not drawn) [Compound 37, 2-methyl-2-(5-(2-((4-(trifluoromethyl)phenyl)amino)pyridin-3-yl)-1,3,4-oxadiazol-2-yl)morpholin-3-one] | ≤ 0.1 |
| CC1(c2nnc(-c3cccnc3Nc3ccc(C(F)(F)F)cc3)o2)CC(N)=NC1=O (stereo not drawn) [Compound 38, 2-amino-4-methyl-4-[5-[2-[4-(trifluoromethyl)anilino]-3-pyridyl]-1,3,4-oxadiazol-2-yl]-3H-pyrrol-5-one] | ≤ 0.1 |
| C[C@@]1(c2nnc(-c3cccnc3Nc3ccc(C(F)(F)F)cc3)o2)CCCNC1=O [Compound 39, (S)-3-methyl-3-(5-(2-((4-(trifluoromethyl)phenyl)amino)pyridin-3-yl)-1,3,4-oxadiazol-2-yl)piperidin-2-one] | ≤ 0.1 |
| C[C@]1(c2nnc(-c3cccnc3Nc3ccc(C(F)(F)F)cc3)o2)CCCNC1=O [Compound 40, (R)-3-methyl-3-(5-(2-((4-(trifluoromethyl)phenyl)amino)pyridin-3-yl)-1,3,4-oxadiazol-2-yl)piperidin-2-one] | 0.1 to 1 |
| C[C@]1(n2nnc(-c3cccnc3Nc3ccc(C(F)(F)F)cc3)n2)CCNC1=O [Compound 42, (3S)-3-methyl-3-[5-[2-[4-(trifluoromethyl)anilino]-3-pyridyl]tetrazol-2-yl]pyrrolidin-2-one] | ≤ 0.1 |
| C[C@@]1(n2nnc(-c3cccnc3Nc3ccc(C(F)(F)F)cc3)n2)CCNC1=O [Compound 43, (3R)-3-methyl-3-[5-[2-[4-(trifluoromethyl)anilino]-3-pyridyl]tetrazol-2-yl]pyrrolidin-2-one] | ≤ 0.1 |
| CCN(C#N)Cc1nnc(-c2nccnc2Nc2ccc(C(F)(F)F)cc2)o1 [Compound 44, ethyl-[[5-[3-[4-(trifluoromethyl)anilino]pyrazin-2-yl]-1,3,4-oxadiazol-2-yl]methyl]cyanamide] | ≤ 0.1 |
| CN(C#N)Cc1nnc(-c2nccnc2Nc2ccc(C(F)(F)F)cc2)o1 [Compound 45, methyl-[[5-[3-[4-(trifluoromethyl)anilino]pyrazin-2-yl]-1,3,4-oxadiazol-2-yl]methyl]cyanamide] | ≤ 0.1 |
| CNCc1nnc(-c2nccnc2Nc2ccc(C(F)(F)F)cc2)o1 [Compound 48, 3-[5-(methylaminomethyl)-1,3,4-oxadiazol-2-yl]-N-[4-(trifluoromethyl)phenyl]pyrazin-2-amine] | 1 to 3 |
